{"source": "BindingDB's records for doi:10.1016/s0960-894x(03)00474-8", "about": "(Merck Research Laboratories, 2003)", "target": "T1, Dimer of Gag-Pol polyprotein [489-587,Q496K] (Human immunodeficiency virus 1, UniProt P12497, Q496K)", "T1 construct": "489-587", "test": "Protease Inhibition Assay", "settings": "pH 5.5; 30 °C", "experimental": "Assay of HIV protease inhibition was performed by peptide cleavage using the substrate Val-Ser-Gln-Asn-beta-naphthylalanine*Pro-Ile-Val. Products of the cleavage reaction were quantified by HPLC detection, and data were fit to nonlinear least squares equations for determination of steady-state Michaelis-Menten kinetics.", "note": "pIC50: −log10 of the molar value.", "data": [{"smiles": "CC(C)(c1ncc(-c2cncc(Cl)c2)o1)N1CCN(C[C@@H](O)C[C@@H](Cc2ccccc2)C(=O)N[C@H]2c3ccccc3OC[C@H]2O)[C@H](C(=O)NCC(F)(F)F)C1", "note": "[(2S)-1-[(2S,4R)-4-benzyl-2-hydroxy-4-{[(3S,4S)-3-hydroxy-3,4-dihydro-2H-1-benzopyran-4-yl]carbamoyl}butyl]-4-{2-[5-(5-chloropyridin-3-yl)-1,3-oxazol-2-yl]propan-2-yl}-N-(2,2,2-trifluoroethyl)piperazine-2-carboxamide]", "values": [{"measurement": "pIC50", "value": 10.70}]}, {"smiles": "CC(C)(c1ccc(-c2ccncc2)o1)N1CCN(C[C@@H](O)C[C@@H](Cc2ccccc2)C(=O)N[C@H]2c3ccccc3OC[C@H]2O)[C@H](C(=O)NCC(F)(F)F)C1", "note": "[(2S)-1-[(2S,4R)-4-benzyl-2-hydroxy-4-{[(3S,4S)-3-hydroxy-3,4-dihydro-2H-1-benzopyran-4-yl]carbamoyl}butyl]-4-{2-[5-(pyridin-4-yl)furan-2-yl]propan-2-yl}-N-(2,2,2-trifluoroethyl)piperazine-2-carboxamide]", "values": [{"measurement": "pIC50", "value": 10.30}]}]}
